Measured values as given in the supplement of paper PMC10307832.

Tests used:
Experiment in all cases: relative viability (nuclei count vs DMSO), 5 days (fraction); higher = more cells survive
HARA = tested on: HARA
How it was run: (§1)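 Cells from lung cancer lines were seeded into 1536-well plates and, one day later, dosed by pin tool. Treatments were either a single drug or a fixed dose of an anchor drug with five library-drug doses (not always all listed) in √10 steps. After 5 days, nuclei were stained in a one-step fixation (final 0.05% Triton X-100, 1% formaldehyde, 1 ug/ml Hoechst) and counted on 4× images, and relative viability is the treated-to-vehicle nuclei ratio, as the median of duplicate plates.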

CAL-12T = tested on: CAL-12T
How it was run: as §1

COR-L 105 = tested on: COR-L 105
How it was run: as §1

HCC-827 = tested on: HCC-827
How it was run: as §1

HOP-62 = tested on: HOP-62
How it was run: as §1

EMC-BAC-2 = tested on: EMC-BAC-2
How it was run: as §1

NCI-H1437 = tested on: NCI-H1437
How it was run: as §1

LCLC-103H = tested on: LCLC-103H
How it was run: as §1

NCI-H727 = tested on: NCI-H727
How it was run: as §1

NCI-H2228 = tested on: NCI-H2228
How it was run: as §1

A-427 = tested on: A-427
How it was run: as §1

SMILES: CC(=O)O[C@@]12CO[C@@H]1C[C@H](O)[C@@]1(C)C(=O)[C@H](O)C3=C(C)[C@@H](OC(=O)[C@H](O)[C@@H](NC(=O)OC(C)(C)C)c4ccccc4)C[C@@](O)([C@@H](OC(=O)c4ccccc4)[C@H]21)C3(C)C [Docetaxel] + CCNC(=O)c1noc(-c2cc(C(C)C)c(O)cc2O)c1-c1ccc(CN2CCOCC2)cc1 [Luminespib] (partner 0.01 µM)
- relative viability (HARA; first compound 0.0002 µM): 0.46
- relative viability (HARA; first compound 0.000632 µM): 0.124
- relative viability (HARA; first compound 0.002 µM): 0.0629
- relative viability (HARA; first compound 0.006325 µM): 0.0587
- relative viability (HARA; first compound 0.02 µM): 0.0441
- relative viability (CAL-12T; first compound 0.0002 µM): 0.413
- relative viability (CAL-12T; first compound 0.000632 µM): 0.252
- relative viability (CAL-12T; first compound 0.002 µM): 0.199
- relative viability (CAL-12T; first compound 0.006325 µM): 0.168
- relative viability (CAL-12T; first compound 0.02 µM): 0.136
- relative viability (COR-L 105; first compound 0.0002 µM): 0.99
- relative viability (COR-L 105; first compound 0.000632 µM): 0.713
- relative viability (COR-L 105; first compound 0.002 µM): 0.531
- relative viability (COR-L 105; first compound 0.006325 µM): 0.595
- relative viability (COR-L 105; first compound 0.02 µM): 0.305
- relative viability (HCC-827; first compound 0.0002 µM): 0.588
- relative viability (HCC-827; first compound 0.000632 µM): 0.67
- relative viability (HCC-827; first compound 0.002 µM): 0.244
- relative viability (HCC-827; first compound 0.006325 µM): 0.159
- relative viability (HCC-827; first compound 0.02 µM): 0.142
- relative viability (HOP-62; first compound 0.0002 µM): 0.938
- relative viability (HOP-62; first compound 0.000632 µM): 0.744
- relative viability (HOP-62; first compound 0.002 µM): 0.509
- relative viability (HOP-62; first compound 0.006325 µM): 0.282
- relative viability (EMC-BAC-2; first compound 0.0002 µM): 1.15
- relative viability (EMC-BAC-2; first compound 0.000632 µM): 1.08
- relative viability (EMC-BAC-2; first compound 0.002 µM): 0.385
- relative viability (EMC-BAC-2; first compound 0.006325 µM): 0.368
- relative viability (EMC-BAC-2; first compound 0.02 µM): 0.238
- relative viability (NCI-H1437; first compound 0.0002 µM): 1.07
- relative viability (NCI-H1437; first compound 0.000632 µM): 1.09
- relative viability (NCI-H1437; first compound 0.002 µM): 0.277
- relative viability (NCI-H1437; first compound 0.006325 µM): 0.234
- relative viability (NCI-H1437; first compound 0.02 µM): 0.167
- relative viability (LCLC-103H; first compound 0.0002 µM): 0.885
- relative viability (LCLC-103H; first compound 0.000632 µM): 0.835
- relative viability (LCLC-103H; first compound 0.002 µM): 0.498
- relative viability (LCLC-103H; first compound 0.006325 µM): 0.443
- relative viability (LCLC-103H; first compound 0.02 µM): 0.218
- relative viability (NCI-H727; first compound 0.0002 µM): 0.753
- relative viability (NCI-H727; first compound 0.000632 µM): 0.419
- relative viability (NCI-H727; first compound 0.002 µM): 0.351
- relative viability (NCI-H727; first compound 0.006325 µM): 0.353
- relative viability (NCI-H727; first compound 0.02 µM): 0.308
- relative viability (NCI-H2228; first compound 0.0002 µM): 0.146
- relative viability (NCI-H2228; first compound 0.000632 µM): 0.145
- relative viability (NCI-H2228; first compound 0.002 µM): 0.129
- relative viability (NCI-H2228; first compound 0.006325 µM): 0.194
- relative viability (NCI-H2228; first compound 0.02 µM): 0.19
- relative viability (A-427; first compound 0.0002 µM): 0.883
- relative viability (A-427; first compound 0.000632 µM): 0.832
